Laboratory results published in patent EP4471028A1, “HYDRAZINO GROUP-CONTAINING COMPOUND” (priority 2022, dated 2023).

Columns and labels:
[1] = In vivo pharmacokinetics (Table 4); settings: plasma; for bioavailability: po, IG 10mg/kg versus IV 1mg/kg, read-out: Absolute F; for clearance: IV, 1mg/kg, read-out: CLz (converted)
[2] = In vitro liver microsomal metabolic stability; assay type: in vitro ADME; settings: human, liver microsomes, pH 7.4; 0.5 mg/mL microsomes, NADPH, 37 °C, 60 min; read-out: Human liver microsome Residual rate at 60 min%
Procedure: Liver microsome incubation samples were prepared by mixing a PBS buffer (pH 7.4), a liver microsome solution (0.5 mg/mL; species: human, monkey, dog, rat, and mouse), a test compound, and an NADPH + MgCl2 solution and incubated at 37 °C and 300 rpm for 1 h. Zero-hour samples were prepared by mixing a PBS buffer (pH 7.4), a liver microsome solution (0.5 mg/mL), and a test compound. An acetonitrile solution containing an internal standard was added to the samples, and supernatants were prepared by protein precipitation, diluted, and then assayed by LC/MS/MS.

Row | Structure (SMILES) | bioavailability [1] | clearance [1] | remaining at 1 h [2]
1 | Nn1c(=O)n(C2CCOCC2)c2c3cc(-c4ccc(OCCCN5CCCC5)nc4)c(F)cc3ncc21 [Example 5] |  |  | 90.6%
2 | COc1cc2ncc3c(c2cc1-c1ccc(OCCCN2CCCC2)nc1)n(C1CC1)c(=O)n3N [Example 11] |  |  | 58.6%
3 | COC1CCC(n2c(=O)n(N)c3cnc4cc(F)c(-c5ccc(OCCCN6CCCC6)nc5)cc4c32)C1 (centres unmarked) [Example 13] |  |  | 56%
4 | COC1CCC(n2c(=O)n(N)c3cnc4cc(F)c(-c5ccc(OCCCN(C)C)nc5)cc4c32)C1 (centres unmarked) [Example 14] |  |  | 66.2%
5 | Nn1c(=O)n(C2CCOCC2)c2c3cc(-c4ccc(OCCCN5CCCCC5)nc4)c(F)cc3ncc21 [Example 15] |  |  | 58.4%
6 | Nn1c(=O)n(C2CC2)c2c3cc(-c4ccc(OCCCN5CCCCC5)nc4)c(F)cc3ncc21 [Example 18] | 75.9% | 26.7 mL/min/kg | 
7 | Nn1c(=O)n(C2CC2)c2c3cc(-c4ccc(OCCCN5CCCC5)nc4)c(F)cc3ncc21 [Example 19] | 88.3% | 35.2 mL/min/kg | 77%
8 | COC1CC(n2c(=O)n(N)c3cnc4cc(F)c(-c5ccc(OCCCN(C)C)nc5)cc4c32)C1 (centres unmarked) [Example 21] |  |  | 79.6%
9 | CC(C)n1c(=O)n(N)c2cnc3cc(F)c(-c4ccc(OCC5CC(N6CCCC6)C5)nc4)cc3c21 (centres unmarked) [Example 22] |  |  | 73.3%
10 | CC(C)n1c(=O)n(N)c2cnc3cc(F)c(-c4ccc(OCCCN5C6CCC5CC6)nc4)cc3c21 [Example 27] | 115% | 59.7 mL/min/kg | 

Further lines, results first:

Row | bioavailability [1] | clearance [1] | remaining at 1 h [2] | Structure (SMILES)
11 | 79.7% | 31 mL/min/kg | 64.4% | CC(C)n1c(=O)n(N)c2cnc3cc(F)c(-c4ccc(OCCCN5CCCCC5)nc4)cc3c21 [Example 2]
12 | 95.5% | 36.3 mL/min/kg | 86.3% | CC(C)n1c(=O)n(N)c2cnc3cc(F)c(-c4ccc(OCCCN5CCCC5)nc4)cc3c21 [Example 3]
13 |  |  | 72.4% | COc1cc2ncc3c(c2cc1-c1ccc(OCCCN2CCCCC2)nc1)n(C(C)C)c(=O)n3N [Example 16]
14 |  |  | 85.2% | COc1cc2ncc3c(c2cc1-c1ccc(OCCCN2CCCC2)nc1)n(C(C)C)c(=O)n3N [Example 17]
15 | 77.4% | 7.45 mL/min/kg | 65.6% | CC(C)n1c(=O)n(N)c2cnc3cc(F)c(-c4ccc(OCCCN5CC(CF)C5)nc4)cc3c21 [Example 28]
16 | 85.9% | 5.27 mL/min/kg | 64.9% | CC(C)n1c(=O)n(N)c2cnc3cc(F)c(-c4ccc(OCCCN5CC6(CCC6)C5)nc4)cc3c21 [Example 29]
17 |  |  | 95.8% | CC(C)n1c(=O)n(N)c2nnc3cc(F)c(-c4ccc(OCCCN5CCCCC5)nc4)cc3c21 [Example 32]
